{"source": "patent US20110124724A1", "about": "“USE OF DRONEDARONE OR A PHARMACEUTICALLY ACCEPTABLE SALT THEREOF, FOR THE PREPARATION OF A MEDICAMENT FOR REGULATING THE POTASIUM LEVEL IN THE BLOOD” (SANOFI-AVENTIS, priority 2008, published 2011)", "experiment": "Prospective, multinational, multicentre, double-blind, placebo-controlled clinical study in patients with a history of atrial fibrillation or atrial flutter", "format": "in vivo", "description": "The patients had to have a history of atrial fibrillation or flutter and/or could be in normal sinus rhythm or in atrial fibrillation or flutter at inclusion.\nThe patient recruitment was carried out by taking into account the following inclusion criteria:\nInclusion Criteria: • 1) One of the following risk factors had to be present: • age equal to or above 70, or even above 75, possibly combined with at least one of the risk factors below: • hypertension (taking antihypertensives of at least two different classes), • diabetes, • history of cerebral stroke (transient ischemic event or completed cerebral stroke) or of systemic embolism, • left atrial diameter greater than or equal to 50 mm measured by echocardiography, • left ventricular ejection fraction less than 40%, measured by two-dimensional echography; • 2) availability of an electrocardiogram carried out during the past 6 months in order to document the presence or the history of atrial fibrillation or flutter; • 3) availability of an electrocardiogram carried out during the past 6 months in order to document the presence or absence of normal sinus rhythm.\nTreatment was initiated using tablets containing either the placebo or an amount of dronedarone hydrochloride corresponding to 400 mg of dronedarone at a rate of one tablet in the morning during or shortly after breakfast and one tablet in the evening during or shortly after dinner.\nThe anticipated duration of the treatment was variable according to the time at which each patient was included in the study, and could range from a minimum of 12 months for the last patient included up to a maximum corresponding to the entire duration of the study (12 months+duration of inclusion), i.e. approximately 30 months for the first patients included.\nThe potassium concentration-modulating effect is clearly documented in the study by virtue of the results of analyses of regular blood samples taken throughout the duration of the study in the context of the monitoring of vital parameters.\nThe variations in potassium (in mmol/l) between the first and the last administration of the medicament of the study are included in FIG. 1, in which B signifies basal level, D signifies day and M signifies month.\nThe number of patients with hypokalaemia was compared using Fischer's exact test. Hypokalaemia is defined as a concentration in potassium ion [K+] below 3 mmol/L.", "key": {"[1]": {"conditions": "among 2255 treated patients with a potassium measurement, from randomization until last administration"}}, "note": "Structures can show the parent of a compound that is named as a salt."}
{"compound": "CCCCc1oc2ccc(NS(C)(=O)=O)cc2c1C(=O)c1ccc(OCCCN(CCCC)CCCC)cc1", "note": "[dronedarone hydrochloride]", "values": [{"measurement": "number of patients with hypokalaemia ([K+] below 3 mmol/L)", "setting": "[1]", "value": 14, "unit": "patients"}, {"measurement": "proportion of patients with hypokalaemia ([K+] below 3 mmol/L)", "setting": "[1]", "value": 0.6, "unit": "%"}]}
{"compound": "CCCCc1oc2ccc(NS(C)(=O)=O)cc2c1C(=O)c1ccc(OCCCN(CCCC)CCCC)cc1", "note": "[dronedarone, 2-n-Butyl-3-[4-(3-di-n-butylaminopropoxy)benzoyl]-5-methylsulphonamidobenzofuran]", "values": [{"measurement": "change in blood potassium level (analysis of covariance, taking into account the starting value)", "setting": "compared to placebo, after the 24th month, 400 mg dronedarone twice daily, p<0.0001", "value": "significant difference in favour of dronedarone"}, {"measurement": "reduction in the risk of sudden death", "setting": "hypertensive patients", "value": 62, "unit": "%"}, {"measurement": "reduction in the risk of sudden death compared with the placebo", "setting": "patients not taking diuretics", "value": 34, "unit": "%"}, {"measurement": "reduction in the risk of sudden death compared with the placebo", "setting": "patients on diuretics", "value": 70.4, "unit": "%"}, {"measurement": "reduction in the risk of sudden death", "setting": "patients who were not hypertensive", "value": 45.5, "unit": "%"}]}
